Inhibition data for one compound are collected here from publication PMC6934184, “Selective DNA-PKcs inhibition extends the therapeutic index of localized radiotherapy and chemotherapy” (The Journal of Clinical Investigation, 2019).

The target of this assay is T1, AMPK (A1/B1/G2) (Homo sapiens, UniProt Q13131).
T1 construct: purchased Thermo Fisher Scientific (Life Technologies) SelectScreen
As to the kind of experiment: SelectScreen LanthaScreen. In kind it is binding. As to conditions: read-out: % displacement. An outline of the steps: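 SelectScreen broad panel; activity (Z'LYTE, Adapta) plus binding formats. ATP: Km app for CSF1R Z'LYTE; 10 for CAMK1 Adapta. Readout = % per kinase.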
On the technique in general: TR-FRET usually uses a lanthanide donor and a delayed reading to cut background.

T1 sequence (Q13131 whole entry): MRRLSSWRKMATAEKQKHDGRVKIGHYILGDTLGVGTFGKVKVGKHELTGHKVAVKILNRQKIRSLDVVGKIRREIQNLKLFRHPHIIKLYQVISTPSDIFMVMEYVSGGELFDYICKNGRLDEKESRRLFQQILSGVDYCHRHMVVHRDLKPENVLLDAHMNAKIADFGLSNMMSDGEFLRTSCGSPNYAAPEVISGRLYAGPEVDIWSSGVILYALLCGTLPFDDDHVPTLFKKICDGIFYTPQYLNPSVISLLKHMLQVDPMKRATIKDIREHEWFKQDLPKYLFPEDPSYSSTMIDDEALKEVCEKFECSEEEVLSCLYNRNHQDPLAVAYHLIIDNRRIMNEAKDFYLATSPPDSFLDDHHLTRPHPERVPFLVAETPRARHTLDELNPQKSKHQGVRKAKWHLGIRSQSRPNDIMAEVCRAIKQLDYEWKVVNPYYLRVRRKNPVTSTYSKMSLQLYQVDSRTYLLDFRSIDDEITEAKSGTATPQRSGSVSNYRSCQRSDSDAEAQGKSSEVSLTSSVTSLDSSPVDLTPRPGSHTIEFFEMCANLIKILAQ
T1 sequence (Q9Y478 whole entry partner): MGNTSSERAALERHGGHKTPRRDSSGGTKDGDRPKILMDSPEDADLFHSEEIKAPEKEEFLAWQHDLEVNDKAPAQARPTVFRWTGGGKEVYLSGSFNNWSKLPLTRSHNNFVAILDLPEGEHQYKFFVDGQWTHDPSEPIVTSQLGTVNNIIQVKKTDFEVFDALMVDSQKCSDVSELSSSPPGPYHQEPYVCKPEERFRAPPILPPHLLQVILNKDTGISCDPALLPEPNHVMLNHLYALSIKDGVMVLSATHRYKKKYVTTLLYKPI
T1 sequence (Q9UGJ0 whole entry partner): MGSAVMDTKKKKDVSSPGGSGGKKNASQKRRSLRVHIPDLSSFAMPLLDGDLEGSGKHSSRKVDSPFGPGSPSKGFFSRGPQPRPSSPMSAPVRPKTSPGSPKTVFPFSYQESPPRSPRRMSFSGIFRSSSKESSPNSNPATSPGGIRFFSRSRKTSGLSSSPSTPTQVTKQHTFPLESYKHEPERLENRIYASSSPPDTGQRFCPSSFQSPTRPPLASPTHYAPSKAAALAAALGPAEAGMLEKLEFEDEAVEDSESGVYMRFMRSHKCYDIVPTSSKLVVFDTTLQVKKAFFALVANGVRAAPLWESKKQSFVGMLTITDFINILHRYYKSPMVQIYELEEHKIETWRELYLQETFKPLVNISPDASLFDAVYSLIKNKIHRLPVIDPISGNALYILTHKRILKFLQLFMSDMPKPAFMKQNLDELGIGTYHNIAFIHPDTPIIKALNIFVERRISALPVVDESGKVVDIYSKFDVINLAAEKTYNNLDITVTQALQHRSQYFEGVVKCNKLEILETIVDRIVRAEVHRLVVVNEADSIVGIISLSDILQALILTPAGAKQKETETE

For the compound `CN(C(=O)CN1CCOCC1)c1ccc2sc3c(-c4cccc5c(=O)cc(N6CC7CCC(C6)O7)oc45)cccc3c2c1` [NU5455], the inhibition at 1 µM was 2.4%.
